The results in this text go back to patent publication US7635491B2, “Method for administering selenium for treating patients suffering from systemic inflammatory response syndrome (SIRS), and composition for implementing the treatment” (priority 1998, dated 2009).

The subject of this experiment is severe systemic inflammatory response syndrome (SIRS). Description: Treatment of intensive-care patients with severe SIRS / septic shock by continuous administration of sodium selenite (case reports). The experiment is classed as in vivo, human. As to the method: A patient, 75 kg, chronic alcoholic with no history of icteroascitic, hemorrhagic or encephalopathic compensation, was admitted to postoperative intensive care with generalized purulent peritonitis from colonic perforation during an attack of diverticular sigmoiditis.
His initial hemodynamics were maintained by perfusion. […] There was a moderate renal insufficiency. An adapted empirical antibiotic therapy was begun, and modified after 48 hours in view of the antiobiograms. At 24 hours severity indexes were IGS II 29, APACHE II 17 and SOFA score was 5. One day after the operation, the situation worsened rapidly with onset of a state of shock with lactic acidosis 5 μmol/l requiring administration of dopamine then rapidly noradrenaline up to 4 mg/h (0.9 μg/kg/min). There was a deterioration of respiratory state requiring increase of the FiO2 because of the onset of an acute adult respiratory distress syndrome (ARDS). As soon as the necessity of noradrenaline administration was recognized, a treatment with sodium selenite by continuous administration was begun at a dose of 4 mg of atomic selenium equivalent over the first 24 hours, followed by continuous administration of sodium selenite at a dose of 1 mg of atomic selenium equivalent for 10 days.
A patient, depressive, anorexic, 51 kg and 1.75 m tall, was admitted on a tentative diagnosis of drug-induced suicide with ingestion of a large amount of analgesics and sedatives. The diagnosis was rapidly changed to generalized purulent peritonitis from a perforated gastric ulcer. They were transferred to postoperative intensive care. There was also a shock condition requiring perfusion and introduction of catechol amines as noradrenaline and dolbutamine; lactic acidosis at 6 μmol/l. Antibacterial and antifungal antibiotic therapy was performed. Diuresis was maintained under diuretics. One hour after the start of noradrenaline administration, a treatment with sodium selenite by continuous administration was begun at a dose of 4 mg of atomic selenium equivalent over the first 24 hours, followed by continuous administration of sodium selenite at a dose of 1 mg of atomic selenium equivalent for 10 days. At 24 hours the severity indexes were IGS II 44, APACHE II 35. The SOFA score was 8.
A patient, presenting major alcohol-tobacco addiction (more than 1 liter of wine per day, 2 packets of cigarettes per day), chronic BPCO respiratory insufficiency, stage 2 arteritis of the lower limbs and deterioration in general health for several months with a productive cough, was transferred to intensive care after a short stay in general medicine. At admission there was a respiratory distress requiring emergency intubation-ventilation. Blood gases confirmed major respiratory acidosis. The patient was feverish. There was a hyperleucocytosis of 24 000 leucocytes of which 88% were polymorphonuclear cells. Blood pressure was stable under perfusion, however there were blotches on the knees. There were no coagulation problems nor renal insufficiency. At 24 hours IGS II was 41, APACHE II 26, and SOFA score 8. Lung samples taken by protected telescopic brush and brochoalveolar washing confirmed the diagnosis of community-acquired pneumonia: 47% of cells infected, Haemophilus influenza β-lactamase negative and wild-type streptococcal anginosis.
The immediate development was marked by a rapid deterioration of respiratory state with necessity of ventilation at FiO2 100%, PEP 8. In addition, very substantial perfusion was necessary with measurement of pressure by right catheterization. Dopamine had to be administered at 10 μg/kg/min. After 8 hours dopamine administration, a treatment with sodium selenite by continuous administration was begun at a dose of 4 mg of atomic selenium equivalent over the first 24 hours, followed by continuous administration of sodium selenite at a dose of 1 mg of atomic selenium equivalent for 10 days. […]

The structures appear in SMILES notation.

Take `O=[Se](O)O` [sodium selenite, Sodium selenite [Na2O3Se]]: where the note is “Example 1”, the “left intensive care, time after the operation” value turned out to be 10 days. Moreover, the platelet level entry was “higher than 150 000 platelets/mm^3” (Example 1, no disseminated intravascular coagulation) and 50% (Example 2). Also, the “extubation, time after the operation” value (Example 2) amounted to 20 days. Under “Example 2: patient, purulent peritonitis, shock, 4 mg atomic selenium equivalent over first 24 hours, then 1 mg for 10 days”, the “time to regression of the shock condition” value turned out to be 24 h. The “hyperlactatemia, maximum (then reduced as from the second day)” value (Example 3) came to 10 µmol/L. Besides, for the setting “Example 3, moderate CIVD”, the “thrombopenia, platelets” value is on record as 7500 platelets/mm^3.
